From patent US20250367183A1, “SUBSTANCE FOR PROMOTING REGENERATION AND REPAIR OF ORGANS OF MAMMALS AND USE THEREOF” (INSTITUTE OF ZOOLOGY, CHINESE ACADEMY OF SCIENCES, priority 2022, published 2025)
Where two headings read alike, the source gives them in different places.

What was measured:
[1] = test system: 2 mm diameter mouse ear hole; assay: ear hole trauma mouse model, 2 mm diameter ear puncher; type: in vivo, C57BL/6 mice; details: for healing of 2 mm ear hole: ferroptosis/autophagy inhibitors 10-20 mg/kg, measured 21 days after damage, n≥8 (FIG. 3); for healing of the 2 mm ear hole: treated 21 days, vs Vehicle (FIG. 1B)
[2] = test system: 4 mm diameter mouse ear hole; design: species or system mice; details: in vivo
[3] = test system: overall protein translation; type: cell-based

Molecule: O=C1OC(COc2ccccc2[N+](=O)[O-])CC1Cc1ccccc1 (stereo not shown) [3BDO]
- healing of 2 mm ear hole [1]: Neither inhibitors of ferroptosis nor autophagy could promote the healing of the ear hole like CHX

Molecule: COc1ccc(C[C@H]2NC[C@H](O)[C@H]2OC(C)=O)cc1 [Ani, anisomycin]
- healing of the 2 mm ear hole ([1]; Ani 10 mg/kg): significantly promote the healing of the ear hole

Molecule: Cc1cc(Nc2cc(Cl)nc(Oc3ccc([N+](=O)[O-])cc3)n2)n[nH]1 [Autophinib]
- healing of 2 mm ear hole [1]: Neither inhibitors of ferroptosis nor autophagy could promote the healing of the ear hole like CHX

Molecule: C[C@@H]1C[C@@H]([C@H](O)CC2CC(=O)NC(=O)C2)C(=O)[C@@H](C)C1 [CHX, 4-((R)-2-((1S,3S,5S)-3,5-dimethyl-2-oxocyclohexyl)-2-hydroxyethyl)piperidine-2,6-dione]
- ISG gene expression (ISG genes; fibroblasts and macrophages): upregulate the expression of classical ISGs
- wound area of 4 mm ear hole [2]: significantly reduced
- HE staining of auricle tissue ([1]; CHX 20 mg/kg (FIG. 1E)): the trauma had completely healed
- HE staining of auricle tissue ([1]; CHX 20 mg/kg, 15th day after trauma (FIG. 1F)): healed the tissue after damage and formed granulation tissue
- KI67 immunohistochemical staining of auricle tissue ([1]; CHX 20 mg/kg, 7 days, basal cells (FIG. 1G)): expressed a large amount of KI67
- closure of 2 mm ear hole wound ([1]; CHX 20 mg/kg, 30 days (FIG. 1D)): completely closed
- HE staining of auricle tissue, regenerated tissues ([1]; CHX 20 mg/kg, 180 days after ear hole closure (FIG. 1H)): regeneration of tissues and tissue derivatives such as hair follicles, glands, cartilage, muscles and blood vessels
- healing of the 2 mm ear hole ([1]; CHX 20 mg/kg): significantly promote the healing of the ear hole
- closure of 2 mm ear hole wound ([1]; CHX greater than 8 mg/kg, after three weeks of treatment (FIG. 1C)): completely closed
- closure of 2 mm ear hole ([1]; each concentration of CHX, intraperitoneal, n≥8 (FIG. 1C)): promoted the closure of a 2 mm diameter of ear holes
- healing effect by administration manner ([1]; oral gavage and intraperitoneal injection, 3 weeks (FIG. 1I)): different manners of administration had the effect of promoting regeneration

Molecule: Cn1nc(C(C)(C)C)cc1NC(=O)Nc1ccc(Oc2ccncc2)cc1 [MAPK13-IN-1]
- ISG gene expression (ISG genes; FIG. 9B, cell type not given): promote the ISG gene expression
- HE staining of ear hole ([1]; MAPK13-IN-1 20 mg/kg (FIG. 9C)): the trauma was almost completely healed
- Masson staining of ear hole ([1]; MAPK13-IN-1, 21 days of treatment (FIG. 9D)): Obvious regeneration of muscle fiber bundles was observed

Molecule: O=C1N[C@@H]2C(=C[C@H](O)[C@@H](O)[C@H]2O)c2cc3c(c(O)c21)OCO3 [Narciclasine]
- ISG gene expression (ISG genes; fibroblasts and macrophages): significantly promoted the expression of ISG genes
- inhibition of overall protein translation [3]: significantly inhibit the overall protein translation
- regenerated tissues in closed ear holes (histochemical, Masson) ([1]; Narciclasine 1-3 mg/kg (FIG. 5F, 5G)): regenerate tissues and tissue derivatives such as hair follicles, glands, cartilage and muscles
- healing of 2 mm ear holes ([1]; Narciclasine 1-3 mg/kg, intraperitoneal (FIG. 5D, 5E)): significantly promote the healing of 2 mm ear holes

Molecule: O=C1N[C@H]2[C@H](O)[C@H](O)[C@@H](O)[C@H](O)[C@@H]2c2cc3c(c(O)c21)OCO3 [Pancratistatin]
- ISG gene expression (ISG genes): significantly promote the ISG gene expression
- inhibition of overall protein translation [3]: significantly inhibit overall protein translation
- HE and Masson staining of ear hole ([1]; mouse, in vivo): completely closed and identified as a regeneration event
- closure of 2 mm ear hole ([1]; mouse, in vivo): the ear hole was completely closed

Molecule: O=C(Nc1ccc(C(O)(C(F)(F)F)C(F)(F)F)cc1)c1ccc(C(F)(F)F)cc1 [SR1078]
- healing of ear holes ([1]; SR1078 1 mg/kg, 21 days after trauma, n≥7 (FIG. 10A)): significantly inhibited regeneration

Molecule: O=S(=O)(Nc1ccc(C(O)(C(F)(F)F)C(F)(F)F)cc1)c1cccs1 [SR3335]
- ISG gene expression (ISG genes; fibroblasts and macrophages): promote the ISG gene expression
- healing of ear holes ([1]; SR3335 10 mg/kg, 21 days after trauma, n≥7 (FIG. 10A)): promoted the ear holes
- HE staining of ear hole ([1]; SR3335 (FIG. 10D)): the wound was almost completely healed
- Masson staining of ear hole ([1]; SR3335, 21 days of treatment (FIG. 10E)): regeneration structures of cartilage, hair follicles, sebaceous glands (arrows), and muscles

Molecule: O=S(=O)(NCCN1CCNCC1)c1ccc(NC2CCCCC2)c(NCc2ccccc2)c1 [UAMC-3203]
- healing of 2 mm ear hole [1]: Neither inhibitors of ferroptosis nor autophagy could promote the healing of the ear hole like CHX

B1: interferon (IFN) γ: cytokine interferon γ (protein, UniProt P01579 24-161, looked up)
Interferon gamma: QDPYVKEAENLKKYFNAGHSDVADNGTLFLGILKNWKEESDRKIMQSQIVSFYFKLFKNFKDDQSIQKSVETIKEDMNVKFFNSNKKKRDDFEKLTNYSVTDLNVQRKAIHELIQVMAELSPAAKTGKRKRSQMLFRG
- ISG gene expression (ISG genes; 10 ng/ml, fibroblasts and macrophages (FIG. 7A, 7B)): significantly promote the ISG gene expression
- healing of ear holes ([1]; IFNγ 50 μg/kg ip once every two days, 35th day after damage (FIG. 7C)): significantly promoted the healing of ear holes after damage

B2: S100A8/A9: S100A8/A9 heterodimer (Biolegend, 765502), alarmin protein (protein, UniProt P05109 1-93; P06702 1-114, looked up)
Protein S100-A8: MLTELEKALNSIIDVYHKYSLIKGNFHAVYRDDLKKLLETECPQYIRKKGADVWFKELDINTDGAVNFQEFLILVIKMGVAAHKKSHEESHKE
Protein S100-A9: MTCKMSQLERNIETIINTFHQYSVKLGHPDTLNQGEFKELVRKDLQNFLKKENKNEKVIEHIMEDLDTNADKQLSFEEFIMLMARLTWASHEKMHEGDEGPGHHHKPGLGEGTP
- ISG gene expression (ISG genes; 5 ng/ml, fibroblasts and macrophages (FIG. 8A, 8B)): significantly promote the ISG gene expression
- healing of ear holes ([1]; S100A8/A9 12.5 μg/kg ip every two days, 35th day after damage (FIG. 8C)): significantly promoted the healing of the ear holes
- complete closure of ear holes ([1]; S100A8/A9 12.5 μg/kg, 35th day after damage): one of the ear holes was completely closed
- HE and Masson staining, regenerated structures ([1]; S100A8/A9 (FIG. 8D)): regeneration of various tissue structures, such as epidermis, dermis, hair follicles, glands, cartilage
